The values that follow are results of earlier work, collected in patent US8748108B2, “Biomarkers for identifying patient classes” (AbbVie Inc., priority 2006, dated 2014).

The series relates to recurrent SCLC. The following applies: recurrent SCLC patients; cited from earlier work.

Regarding `CC[C@@]1(O)C(=O)OCc2c1cc1n(c2=O)Cc2cc3c(CN(C)C)c(O)ccc3nc2-1` [topotecan], the response rate is 2-6%.
